Experimental data published in paper PMC5349910, “Discovery of BPR1K871, a quinazoline based, multi-kinase inhibitor for the treatment of AML and solid tumors: Rational design, synthesis, in vitro and in vivo evaluation” (Oncotarget, 2016).
“Also recorded” adds a separate entry of the source. Where two headings read alike, the source gives them in different places.

Key:
[1] = In vivo pharmacokinetics evaluation in rats; design: species or system Male Sprague-Dawley rats; conditions: rat
Description: This study was approved by Institutional Animal Care and Use Committee of National Health Research Institutes. A solution of test compound (10 mg/mL) was prepared by dissolving appropriate amount of compound in a mixture of DMA/PEG400 (20/80, v/v). Male Sprague-Dawley rats, weighing 250–350 g each (8–10 weeks old), were obtained from BioLASCO, Ilan, Taiwan. […] The volume of dosing solution administered was adjusted according to the body weight recorded before dose administration. At 0 (prior to dosing), 2, 5, 15, and 30 min and at 1, 2, 4, 6, 8, and 24 h after dosing, a blood sample (∼150 μL) was collected from each animal via the jugular-vein cannula and stored in ice (0–4°C). Plasma was separated from the blood by centrifugation (14000 g for 15 min at 4°C in a Beckman model AllegraTM 6R centrifuge) and stored in a freezer (–60°C). All samples were analyzed for the test compound by LC-MS/MS (ABI3000). Data were acquired via multiple reactions monitoring. Plasma concentration data were analyzed with standard noncompartmental method with WinNonLin software program (version 1.1, Pharsight Corporation, CA).

MESSA/DX cells = assay: Anti-proliferative activity, MESSA/DX; type: cell-based; conditions: Homo sapiens; Doxorubicin Drug Resisted MESSA
FLT3^ITD = assay: KINOMEScan, FLT3 ITD; conditions: 1000 nM
[2] = tested on: Detroit 551 (human normal skin fibroblast cells); assay: MTS cell viability assay, Detroit-551; type: cell-based; conditions: 72 h
Description: The MTS cell viability assay was conducted as previously described. The MOLM-13 human leukemia cell line was obtained from the German Resource Centre for Biological Material (DSMZ, Braunschweig, Germany); the MV4-11 cell line was purchased from the American Type Culture Collection (ATCC, Manassas, VA, USA). Both the leukemia cell lines were maintained in RPMI 1640 medium supplemented with 10% fetal bovine serum (FBS), 10 UmL^-1 penicillin, and […] streptomycin at 37°C and 5% CO2. The Detroit-551, COLO205, and Mia-PaCa2 cell lines were purchased from the American Type Culture Collection (ATCC, Manassas, VA, USA) and cultured according to instructions of ATCC. To determine cell viability after drug treatment, assay for MOLM-13 and MV4-11 was performed by seeding 10000 cells per well in a 96-well culture plate. Detroit-551, COLO205, and Mia-PaCa2 were seeded at density of 2500, 4000, and 3750 cells per well, respectively. After 16 h, cells were then treated with vehicle or various concentrations of compound in medium for 72 h. Viable cells were quantified using the MTS method (Promega, Madison, WI, USA) according to the manufacturer's recommended protocol. Results were determined by measuring the absorbance at 490 nm using a plate reader (Victor2; PerkinElmer, Shelton, CT, USA).

KIT^L576P = KIT^L576P (Homo sapiens, UniProt P10721, L576P); assay: KINOMEScan, KIT L576P; conditions: read-out: KIT^L576P % control
KIT^L576P, sequence (P10721 26-976 L576P): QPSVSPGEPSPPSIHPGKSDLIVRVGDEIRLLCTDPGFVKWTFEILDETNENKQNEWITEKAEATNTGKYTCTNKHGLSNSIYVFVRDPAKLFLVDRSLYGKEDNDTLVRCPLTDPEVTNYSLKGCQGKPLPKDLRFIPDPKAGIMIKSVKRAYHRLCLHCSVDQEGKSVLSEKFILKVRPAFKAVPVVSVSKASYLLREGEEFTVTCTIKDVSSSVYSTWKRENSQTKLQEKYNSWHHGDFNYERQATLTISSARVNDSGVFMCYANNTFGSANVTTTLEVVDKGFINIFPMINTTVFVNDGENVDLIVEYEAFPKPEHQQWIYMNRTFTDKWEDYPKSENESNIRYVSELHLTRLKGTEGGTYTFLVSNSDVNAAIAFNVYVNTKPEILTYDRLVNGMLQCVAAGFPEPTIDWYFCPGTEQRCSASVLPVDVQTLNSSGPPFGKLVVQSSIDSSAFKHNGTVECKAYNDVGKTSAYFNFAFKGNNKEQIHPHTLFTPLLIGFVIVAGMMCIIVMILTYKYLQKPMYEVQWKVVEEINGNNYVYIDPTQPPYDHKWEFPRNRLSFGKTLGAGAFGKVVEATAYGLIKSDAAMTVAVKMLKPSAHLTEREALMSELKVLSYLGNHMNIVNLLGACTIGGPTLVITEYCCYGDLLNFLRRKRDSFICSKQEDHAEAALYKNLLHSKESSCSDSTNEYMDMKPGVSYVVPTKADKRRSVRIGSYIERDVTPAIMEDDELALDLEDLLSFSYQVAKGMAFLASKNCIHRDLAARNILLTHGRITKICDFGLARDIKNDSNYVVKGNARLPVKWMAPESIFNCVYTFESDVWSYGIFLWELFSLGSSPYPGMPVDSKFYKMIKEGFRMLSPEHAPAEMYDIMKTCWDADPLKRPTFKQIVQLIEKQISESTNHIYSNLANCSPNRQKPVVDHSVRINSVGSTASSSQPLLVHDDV

K562 cells = assay: Anti-proliferative activity, K562; type: cell-based; conditions: Homo sapiens, K562; CML-Bcr-Abl FLT3-negative; supplement values ± SEM; read-out: K562 EC50
KIT^A829P = KIT^A829P (Homo sapiens, UniProt P10721, A829P); assay: KINOMEScan, KIT A829P; conditions: read-out: KIT^A829P % control
KIT^A829P, sequence (P10721 26-976 A829P): as the sequence (P10721 26-976 L576P) above, with P551L, A804P counted along it

CYP 2C19 = CYP 2C19 (Homo sapiens, UniProt P33261); assay: CYP inhibition assay, CYP 2C19; type: in vitro ADME
CYP 2C19, sequence (P33261 whole entry): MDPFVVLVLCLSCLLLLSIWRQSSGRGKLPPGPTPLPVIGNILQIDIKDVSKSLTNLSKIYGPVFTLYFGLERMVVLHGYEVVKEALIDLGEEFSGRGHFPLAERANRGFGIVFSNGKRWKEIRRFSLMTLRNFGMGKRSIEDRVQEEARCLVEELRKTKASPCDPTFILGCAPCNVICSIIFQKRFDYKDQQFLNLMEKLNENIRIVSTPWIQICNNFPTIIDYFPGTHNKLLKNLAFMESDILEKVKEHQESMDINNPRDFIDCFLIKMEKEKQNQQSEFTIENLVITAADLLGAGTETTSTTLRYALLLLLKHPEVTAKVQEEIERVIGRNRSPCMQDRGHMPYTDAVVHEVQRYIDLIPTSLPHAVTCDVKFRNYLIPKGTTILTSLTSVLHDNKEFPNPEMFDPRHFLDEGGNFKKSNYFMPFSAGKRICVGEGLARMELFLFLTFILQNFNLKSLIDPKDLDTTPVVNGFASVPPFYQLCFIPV

MV4-11 cells = assay: MTS cell viability assay, MV4-11; type: cell-based, human; conditions: MTS, 72 h, AML-FLT3-ITD (homozygous), supplement values ± SEM, read-out: MV4-11 EC50
Description: The MTS cell viability assay was conducted as previously described. The MOLM-13 human leukemia cell line was obtained from the German Resource Centre for Biological Material (DSMZ, Braunschweig, Germany); the MV4-11 cell line was purchased from the American Type Culture Collection (ATCC, Manassas, VA, USA). […] To determine cell viability after drug treatment, assay for MOLM-13 and MV4-11 was performed by seeding 10000 cells per well in a 96-well culture plate. […] After 16 h, cells were then treated with vehicle or various concentrations of compound in medium for 72 h. Viable cells were quantified using the MTS method (Promega, Madison, WI, USA) according to the manufacturer's recommended protocol. Results were determined by measuring the absorbance at 490 nm using a plate reader (Victor2; PerkinElmer, Shelton, CT, USA).

Hep 3B cells = assay: Anti-proliferative activity, Hep 3B; type: cell-based; conditions: Hep3B; Human Hepatoma
CYP 2C9 = CYP 2C9 (Homo sapiens, UniProt P11712); assay: CYP inhibition assay, CYP 2C9; type: in vitro ADME
CYP 2C9, sequence (P11712 whole entry): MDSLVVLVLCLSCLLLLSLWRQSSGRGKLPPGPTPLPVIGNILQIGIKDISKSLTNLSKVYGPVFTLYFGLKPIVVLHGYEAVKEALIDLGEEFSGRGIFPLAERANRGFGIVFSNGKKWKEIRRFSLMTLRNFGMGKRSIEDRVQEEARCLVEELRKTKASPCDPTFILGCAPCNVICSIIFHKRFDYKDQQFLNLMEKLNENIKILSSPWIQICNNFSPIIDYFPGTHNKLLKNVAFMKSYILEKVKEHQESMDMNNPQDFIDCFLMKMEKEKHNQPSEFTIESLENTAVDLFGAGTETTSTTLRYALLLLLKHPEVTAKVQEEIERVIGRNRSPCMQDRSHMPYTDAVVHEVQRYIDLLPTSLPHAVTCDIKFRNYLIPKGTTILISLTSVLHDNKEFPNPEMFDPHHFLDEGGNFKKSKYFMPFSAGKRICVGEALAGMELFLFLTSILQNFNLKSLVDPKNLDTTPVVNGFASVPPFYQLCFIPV

[3] = Acute toxicity in ICR mice; type: in vivo; conditions: ICR mice (n = 3), iv, 50 mg/kg once a day for five days
[4] = Microsomal stability assay, mouse; type: in vitro ADME
MOLM-13 tumor xenograft = assay: MOLM-13 subcutaneous xenograft model; type: in vivo; conditions: nude mice, iv 1, 3 or 10 mg/kg; hydrochloride salt; p < 0.05
Description: Based on the potent in vitro anti-proliferative activity of BPR1K871, it was planned to investigate the in vivo efficacy. […] Subsequently, based on the PK study, we evaluated the acute toxicity of BPR1K871 in ICR mice (n = 3) by iv administration. […] Next, the antitumor activity of BPR1K871 was evaluated through IV route in MOLM-13 and MV4-11 xenograft models (Figure 5). For this, nude mice were inoculated subcutaneously with MOLM-13 and MV4-11 cells in the left flank. […] For MOLM-13 model, BPR1K871 was injected intravenously at 10 mg/kg daily for 5 days (on days 1–5); also BPR1K871 was intravenously administrated at 3 and 1 mg/kg once a day for two continuous weeks (on days 1–5 and 8–12). For MV4-11 model, BPR1K871 was intravenously administrated at 10, 3 and 1 mg/kg once a day for two continuous weeks (on days 1–5 and 8–12).

[5] = male, Sprague-Dawley, plasma, iv, 5 mg/kg

SMILES: CN(C)CCCOc1ccc2c(NCCc3cnc(NC(=O)Nc4cccc(Cl)c4)s3)ncnc2c1 [BPR1K871, 1-(3-Chlorophenyl)-3-(5-(2-((7-(3-(dimethylamino)propoxy)quinazolin-4-yl)amino)ethyl)thiazol-2-yl)urea]
- AUC(0-inf) [1, 5]: 1460 ng·h/mL
- clearance [1, 5]: 60.4 mL/min/kg
- half-life [1, 5]: 23.5 h
- Vd ([1]; male, Sprague-Dawley, plasma, iv, 5 mg/kg, read-out: Vss): 34.2 L/kg
- oral bioavailability [1]: without oral bioavailability
- AUC (0-∞) ([1]; po, 20 mg/kg): not detectable
- Cmax ([1]; po, 20 mg/kg): not detectable
- Tmax ([1]; po, 20 mg/kg): not detectable
- t1/2 ([1]; po, 20 mg/kg): not detectable
- EC50 (MESSA/DX cells): 6900 nM
- FLT3^ITD % control (FLT3^ITD): < 5.2 % control
- EC50 [2]: 4000 nM
- remaining binding at 1 µM (KIT^L576P): < 4%
- EC50 (K562 cells): 2300 nM
- remaining binding at 1 µM (KIT^A829P): < 4%
- IC50 (CYP 2C19): > 4000 nM
- EC50 (MV4-11 cells; Homo sapiens, MV4-11, 72 h): ~5 nM
- EC50 (MV4-11 cells; listed as 10 (BPR1K871)): 4 nM
- EC50 (Hep 3B cells): 2470 nM
- IC50 (CYP 2C9): > 4000 nM
- acute toxicity (tolerability) [3]: well tolerated
- microsomal stability, remaining at 30 min [4]: > 30%
- growth / volume of MOLM-13 tumor xenograft vs vehicle (MOLM-13 tumor xenograft): significantly reduced; also recorded: inhibited
